Assay results published in patent US8957022B2, “Multimeric tie 2 agonists and uses thereof in stimulating angiogenesis” (Sunnybrook Health Sciences Centre, priority 2006, dated 2015).

How the values were obtained:
[1] = system: MAPK, AKT and eNOS; test: Phosphorylation of downstream signalling proteins in HUVEC (immunoblot); type: cell-based, human
Procedure: Having established that Vasculotide was able to bind Tie 2 (see Example 2), the ability of Vasculotide, when clustered with avidin in a 4:1 ratio (Vasculotide:avidin), to activate the Tie 2 receptor was tested by examining several well established downstream signalling pathways in human umbilical vein endothelial cells (HUVEC) (Cambrex, N.J.). Such signalling pathways are described in, for example, Kim, I. et al. (2000) Circ. Res. 9:952-959; Fujikawa, K. et al. (1999) Exp. Cell. Res. 2:663-672; Babaei, S. et al. (2003) Am. J. Pathol. 6:1927-1936.
HUVEC were grown on 6-well or 10 cm plates (Nunc) coated with gelatin (Sigma). HUVEC were cultured in F12 growth medium containing 10% fetal bovine serum (FBS), 0.1 mg/ml heparin sulphate, 1× penicillin, 1× streptomycin, 1× glutamine, VEGF 10 ng/ml, EGF 10 ng/ml, bFGF 5 ng/ml. All HUVEC were used between passage 3-9.
HUVEC were stimulated with one of either Ang 1 (R&D Systems), Vasculotide, avidin or clustered Vasculotide (preclustered with a 4:1 molar ratio of peptide:avidin in PBS for 2 hours at 4° C.) at various doses. Stimulations with Vasculotide were performed in full serum containing growth media for 15 minutes unless otherwise indicated. Cell lysate preparations and immunoblot analysis were performed by standard methods. […]

[2] = system: focal adhesion kinase (FAK); test: FAK activation in HUVEC (pY397 FAK immunoblot); type: cell-based, human; conditions: time course
Procedure: HUVEC were stimulated with one of either Ang 1 (R&D Systems), Vasculotide, avidin or clustered Vasculotide (preclustered with a 4:1 molar ratio of peptide:avidin in PBS for 2 hours at 4° C.) at various doses. Stimulations with Vasculotide were performed in full serum containing growth media for 15 minutes unless otherwise indicated. Cell lysate preparations and immunoblot analysis were performed by standard methods. Antibodies used for immunoblotting (in this and/or subsequent Examples) were monoclonal anti Tie 2 (Pharminogen), polyclonal anti pY992 Tie 2, (Cell Signaling Technology), polyclonal anti MAPK (Cell Signaling Technology), monoclonal anti phospho MAPK (Cell Signaling Technology), polyclonal anti AKT (Cell Signaling Technology), polyclonal anti pS473 AKT (Cell Signaling Technology), monoclonal anti pS1177 eNOS (BD Biosciences), polyclonal anti pY397 FAK (Biosource), polyclonal anti FAK (Santa Cruz), polyclonal anti smooth muscle actin-Cy3 direct conjugate (Dako), polyclonal anti PECAM (Pharminogen) and polyclonal anti smooth muscle actin (Sigma).
To examine Tie 2 activation kinetics, HUVEC were stimulated with native Ang 1 or clustered Vasculotide for various times. Stimulation was performed in 10% FBS. […]

Substance: clustered Vasculotide: Vasculotide clustered with avidin in a 4:1 ratio, an obligate tetrameric compound
- pMAPK and pAKT in the time course ([1]; 10% FBS): marked increases in pMAPK and pAKT
- Phosphorylation of Tie 2-responsive proteins MAPK, AKT and eNOS ([1]; coincident with receptor activation): phosphorylation of several known Tie 2-responsive proteins including MAPK, AKT and eNOS, was observed
- Activation of FAK [2]: no significant effect
